Reference: patent US20230212517A1, “METHODS FOR GENERATING HEMATOPOIETIC STEM CELLS” (The Brigham and Women's Hospital, Inc., priority 2018, published 2023)
Entries after “also recorded” stand apart in the source; their conditions may differ.

Tests used:
zebrafish embryos = assay: HSPC marker expression in chemically treated embryos (whole mount in situ hybridization); format: in vivo
Procedure: (§1) Zebrafish embryos were treated with the following chemical modulators in E3 fish media: 100 uM L-NAME (Fisher Scientific), 50 uM Digitoxigenin (Sigma), 25-50 uM Yoda1 (Cayman Chemical), 1 uM Nanaomycin (Nana; Fisher Scientific), 100 uM Gadolinium chloride (GdCl3; Sigma), 5-10 uM 4α-phorbol 12, 13-didecanaote (4Apdd; Sigma), or GSK205 (10 uM).
Whole mount in situ hybridizations was performed as previously described.

E11.5 AGM cells = assay: Hematopoietic colony formation unit (CFU) and FACS assays on E11.5 AGM cells; format: cell-based, mouse; conditions: for effect on cyclic strain-induced endothelial-to-HSC transition / hematopoietic progenitor formation: in the presence of cyclic strain (stretch)
Procedure: Pulsating blood vessels like conditions were stimulated in vitro using FLEXCELL FX-4000 cell stretching bioreactor machine. To analyze roles of pharmacological targets in regulating the endothelial-to-HSC transition, mouse embryo-derived AGM or whole mouse embryo were exposed ex vivo with biomechanical stretching, chemicals, or drugs. Next, hematopoietic colony formation assays were performed by incubating mouse AGM-derived cells in StemCell M3434 media for seven days. Serial transplantation of AGM-derived HSCs in lethally irradiated SJL mice were performed. The stem cell frequency upon biomechanical stretching was analyzed using a limiting dilution assay. To characterize properties of AGM-HSC-derived blood cells in primary transplants, percentage chimerism and reconstitution was measured using FACS, globin transcripts were analyzed using quantitative reverse transcriptase-PCR, myeloperoxidase amount was measured using PICOKINE ELISA kit, TCR-β rearrangement was analyzed using PCR for TCR-β locus, pre-immune IG detection was analyzed using Thermo-Fisher Mouse Ig Isotyping kit, and delayed-type hypersensitivity was analyzed by injecting sheep RBC (Rockland Immunochemicals) in the footpad of pre-sensitized mice.
E11.5 AGM were harvested from C57BL6/J Cd45.2 mouse embryos, and a single cell suspension of a three-embryo equivalent of cells was seeded on each well of a BioFlex six-well culture plate (FlexCell). We cultured cells overnight with the application of cyclic strain (Flexcell® FX4000™ Tension System) and/or treatment with chemical modulators (25-50 μM Yoda1, 1 μM Nanaomycin, 100 μM GdCl3, 1 uM GsMTx4, 5-20 μM 4αPDD, 10 uM GSK205). Next, harvested cells were used to perform transplant, fluorescence-activated cell sorting (FACS) analysis, and colony-forming unit (CFU) assays.
E11.5 mouse embryos were harvested from the uterus of the time-mated pregnant female, into sterile glass vials containing FBS, 1 mM glucose, 1% Penicillin-Streptomycin, and/or the selected chemical modulator (25-50 μM Yoda1, 1 μM Nanaomycin, 5-20 μM 4αPDD, or 10 uM GSK205). We placed glass vials in the ex vivo incubator (BTC Engineering, Cambridge, UK) consisting of a roller apparatus (rotating ˜30 rpm), constant gas supply (21% O2, 5% CO2, balance N2) and constant temperature at 37° C. After 24 hours, AGM were harvested to analyze the formation of hematopoietic cells by FACS and CFU assays.
For CFU assays, cells from AGM explant or ex vivo were plated in METHOCULT GF M3434 media (StemCell Technologies). Seven days after seeding, we analyzed their capacity to make granulocyte, erythroid, macrophage, megakaryocyte (GEMM), granulocyte macrophage (GM), granulocyte (G), macrophage (M), and erythroid (E) colonies.
AGM cells from explants and ex vivo were stained with Sca1-Pacific-Blue (E13-161.7, Biolegend) and Flk1-APC-Cy7 (Avas 12α1, BD). Blood from transplanted mice was stained with the following antibody cocktail: Cd45.2-Pacific-Blue (104, Biolegend), Cd45.1-FITC (A20, Biolegend), Cd3-PE (145-2C11, Biolegend), Cd8-PE (53-6.7, Biolegend), Mac1-APC (M1/70, Biolegend), Gr1-APC (108412, Biolegend), Cd19-APC-CY7 (6D5, Biolegend), B220-APC-CY7 (RA3-6B2, Biolegend).

[1] = tested on: cd41:eGFP+ HSCs emerging from flk1:mCherry+ endothelial cells; assay: Time-lapse confocal imaging of cd41:eGFP+ HSCs emerging from flk1:mCherry+ endothelial cells in transgenic embryos; format: in vivo, zebrafish
Procedure: Mice were purchased Cd45.2 (C57BL6/J) and Cd45.1 (SJL) from The Jackson Laboratory and zebrafish morpholinos from GeneTools. Microangiography was performed by injecting fluorescent-labeled dextran dye in the atrium of zebrafish heart and its passage was recorded using live imaging. Immunostaining of zebrafish heart and mouse AGM were analyzed using an inverted fluorescent microscope. Cardiac tamponade, heart rate, and pulse frequency were analyzed in zebrafish embryos using bright field imaging or time-lapse confocal microscopy. The movement of red blood cells in blood vessels was analyzed as well as the endothelial-to-HSC transition in zebrafish transgenic embryos using time-lapse confocal imaging.
as §1
cd41: eGFP were crossed with flk1:mCherry zebrafish and flk1:mCherry with lcr:eGFP zebrafish and injected morpholino in their transgenic embryos. Transgenic embryos were mounted in low-melting-point agarose and a spinning-disk confocal microscope was used to perform time-lapse confocal imaging of cd41:eGFP^+ HSCs emerging from flk1^+ endothelium from 30 to 42 hpf. The relative movement of lcr:eGFP^+ red blood cells was analyzed in the context of flk1:mCherry^+ endothelium. We performed image analysis using IMARIS (Bitplane) software.

Compound	HSPC marker expression / HSPC formation (zebrafish embryos; control embryos)	effect on cyclic strain-induced endothelial-to-HSC transition / hematopoietic progenitor formation (E11.5 AGM cells)	HSPC marker expression / HSPC formation (zebrafish embryos; cdh5-MO embryos)	effect on Piezo1 activation (Yoda1)-mediated increase in HSC formation ([1]; embryos concurrently treated with or without Yoda1, also whole mount in situ hybridization)	specificity for Dnmt3b over Dnmt3a ([1]; transgenic embryos 26-42 hpf)	phenotype of hematopoietic cells after treatment (E11.5 AGM cells; E11.5 AGM cells)	effect on Piezo1 activation (Yoda1)-induced endothelial-to-HSC transition (E11.5 AGM cells; in the presence of Yoda1)
[Cl][Gd]([Cl])[Cl] [GdCl3, Gadolinium chloride]	attenuated HSPC expression in zebrafish embryos to the level of sih-MO embryos	attenuated	–	–	–	–	–
COC(=O)[C@@H](N)CCCNC(=N)N[N+](=O)[O-] [L-NAME]	attenuates HSPC formation	–	produce HSCs; also recorded: does not impact HSPC formation	–	–	–	–
CC1OC(CC(=O)O)CC2=C1C(=O)c1c(O)cccc1C2=O (stereo not drawn) [Nanaomycin]	attenuated HSPC marker expression	attenuates the endothelial-to-HSC transition	attenuated HSPC marker expression	attenuated the Piezo1 activation-mediated increase in HSC formation	specificity of Nanaomycin for Dnmt3b over Dnmt3a	reverts hematopoietic cells into phenotypic endothelial cells	attenuates the endothelial-to-HSC transition
GsMtX4	–	attenuates the inductive impact of cyclic strain on the endothelial-to-HSC transition	–	–	–	–	–
